Each structure is given as a SMILES string.

Test [1] deals with T1, SOS1 catalytic domain (residues 564-1049) (Homo sapiens, UniProt Q07889).
T1 sequence (Q07889 564-1049): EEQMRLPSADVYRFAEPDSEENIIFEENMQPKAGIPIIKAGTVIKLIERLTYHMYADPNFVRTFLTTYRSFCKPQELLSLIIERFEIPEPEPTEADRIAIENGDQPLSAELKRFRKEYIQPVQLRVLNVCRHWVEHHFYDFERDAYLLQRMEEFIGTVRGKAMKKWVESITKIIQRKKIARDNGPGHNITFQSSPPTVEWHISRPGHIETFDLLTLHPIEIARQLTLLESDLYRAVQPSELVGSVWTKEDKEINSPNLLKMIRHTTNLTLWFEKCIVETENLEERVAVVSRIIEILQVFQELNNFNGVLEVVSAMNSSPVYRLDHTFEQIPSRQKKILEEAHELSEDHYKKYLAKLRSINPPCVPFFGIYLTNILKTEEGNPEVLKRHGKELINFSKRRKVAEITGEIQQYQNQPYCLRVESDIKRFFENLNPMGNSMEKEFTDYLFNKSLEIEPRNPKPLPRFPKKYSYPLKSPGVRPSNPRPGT
The test is described as follows: Potency Assay: binding affinity to SOS1 using Surface Plasmon Resonance (SPR). To be noted: immobilized SOS1 catalytic domain (residues 564-1049), read-out: SOS1 SPR Equilibrium Kd. Further details: SOS1 catalytic domain (residues 564-1049) immobilized on a sensor chip. An outline of the steps:
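Avi-tagged SOS1 catalytic domain captured on streptavidin chip (~6000 RU) in 0.01 M HEPES, 0.15 M NaCl, 0.05% P20. Compound dilution series flowed at 50 μL/min for association, then buffer for dissociation, with double reference subtraction. Kd derived from end-of-association binding response plotted against concentration.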

Test [2] deals with PC-9 cells (EGFR Ex19Del). The test is described as follows: Potency Assay: pERK (SOS1 pERK IC50 Assay, AlphaLISA SureFire Ultra p-ERK1/2). The test is classed as cell-based. To be noted: Homo sapiens; PC-9 cells (EGFR Ex19Del), 1 hour incubation, AlphaLISA p-ERK1/2; read-out: SOS1 pERK IC50. The essentials:
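PC-9 (EGFR Ex19Del) cells plated overnight, then treated 1 h at 37° C. with 10-point 3-fold dilutions (top 10 μM final) in duplicate. Lysate pERK1/2 measured by AlphaLISA SureFire Ultra; IC50 from 4-parameter sigmoidal fit.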
In general terms: Bead proximity is the source of the signal in Alpha formats.

In test [3] the target is T1, SOS1 catalytic domain (residues 564-1049). The test is described as follows: Mode of Action Assay: inhibition of SOS1 nucleotide exchange activity (SOS1 TR-FRET IC50 Assay).

By Kd is commonly meant the constant that tells how readily two partners part at equilibrium. Broadly, the IC50 is the point on the concentration scale where inhibition reaches its midpoint. Consider `C[C@@H](Nc1nc(Cl)nc2c1CN(C(=O)C1(F)CCNCC1)C2)c1cccc(C(F)F)c1F` [Example 284], for which the Kd in test [1] is under 0.4 µM. The half-inhibitory concentration (IC50) in test [2] and in test [3] was under 1 µM each time.

Consider `C[C@@H](Nc1nc(Cl)nc2c1CN(C(=O)C1(N)COC1)C2)c1cccc(C(F)F)c1F` [Example 285], for which the Kd in test [1] was under 0.4 µM. Further, the IC50 in test [2] and in test [3] was under 1 µM each time.

In the case of `C[C@@H](Nc1nc(Cl)nc2c1CN(C(=O)C1CCN1)C2)c1cccc(C(F)F)c1F` (stereo partly drawn) [Example 286], in test [1], the Kd is under 0.4 µM. Besides, the IC50 in test [2] and in test [3] was under 1 µM in each case.

Turning to `C[C@@H](Nc1nc(Cl)nc2c1CN(C(=O)C1(N)CCOCC1)C2)c1cccc(C(F)F)c1F` [Example 287], the Kd in test [1] was under 0.4 µM. Moreover, the IC50 in test [2] and in test [3] was under 1 µM each time.

With `C[C@@H](Nc1nc(Cl)nc2c1CN(C(=O)C1CNCCO1)C2)c1cccc(C(F)F)c1F` (stereo partly drawn) [Example 288], the dissociation constant Kd in test [1] was under 0.4 µM. Also, the IC50 in test [2] and in test [3] was under 1 µM throughout.

Take `COC1CC(N)(C(=O)N2Cc3nc(Cl)nc(N[C@H](C)c4cccc(C(F)F)c4F)c3C2)C1` (stereo partly drawn) [Example 289]: the dissociation constant (Kd) in test [1] is under 0.4 µM. Besides, the half-maximal inhibitory concentration (IC50) in test [2] and in test [3] was under 1 µM throughout.

Regarding `C[C@@H](Nc1nc(Cl)nc2c1CN(C(=O)[C@]13CN[C@H](CO1)C3)C2)c1cccc(C(F)F)c1F` [Example 290], in test [1], the Kd is under 0.4 µM. The IC50 in test [2] and in test [3] was under 1 µM in each case.

Consider `C[C@@H](Nc1nc(Cl)nc2c1CN(C(=O)CC1COCCN1)C2)c1cccc(C(F)F)c1F` (stereo partly drawn) [Example 291], for which the Kd in test [1] was over 0.4 µM. Further, the IC50 in test [2] and in test [3] was under 1 µM in each case.

As for `C[C@@H](Nc1nc(Cl)nc2c1CN(C(=O)CN1CCOCC1)C2)c1cccc(C(F)F)c1F` [Example 292], the Kd in test [1] was under 0.4 µM. Besides, the IC50 in test [2] and in test [3] was under 1 µM throughout.

Take `C[C@@H](Nc1nc(Cl)nc2c1CN(C(=O)C1CNCCOC1)C2)c1cccc(C(F)F)c1F` (stereo partly drawn) [Example 293]: the Kd in test [1] was under 0.4 µM. Also, the IC50 in test [2] and in test [3] was under 1 µM in each case.

With `C[C@@H](Nc1nc(Cl)nc2c1CN(C(=O)C1(C#N)CCNCC1)C2)c1cccc(C(F)F)c1F` [Example 294], in test [1], the Kd was under 0.4 µM. Also, the IC50 in test [2] and in test [3] was under 1 µM in each case.

In the case of `C[C@@H](Nc1nc(Cl)nc2c1CN(C(=O)C1CN(C3CCOC3)C1)C2)c1cccc(C(F)F)c1F` (stereo partly drawn) [Example 295], the dissociation constant Kd in test [1] is under 0.4 µM. Besides, the IC50 in test [2] and in test [3] was under 1 µM throughout.

In the case of `CC(CC(=O)N1Cc2nc(Cl)nc(N[C@H](C)c3cccc(C(F)F)c3F)c2C1)N1CCNCC1` (stereo partly drawn) [Example 296], in test [1], the Kd was under 0.4 µM. Moreover, the IC50 in test [2] and in test [3] was under 1 µM throughout.

With `C[C@@H](Nc1nc(Cl)nc2c1CN(C(=O)C13CN(C1)S(=O)(=O)C3)C2)c1cccc(C(F)F)c1F` [Example 297], in test [1], the Kd is under 0.4 µM. Further, the concentration for half-maximal inhibition (IC50) in test [2] and in test [3] was under 1 µM each time.

Turning to `C[C@@H](Nc1nc(Cl)nc2c1CN(C(=O)C1CN(C)CCO1)C2)c1cccc(C(F)F)c1F` (stereo partly drawn) [Example 298], in test [1], the Kd was under 0.4 µM. In addition, the figures for the IC50 in test [2] and in test [3] were over 1 µM and under 1 µM, respectively.

For `C[C@@H](Nc1nc(Cl)nc2c1CN(C(=O)C1(C#N)CCN(C)CC1)C2)c1cccc(C(F)F)c1F` [Example 299], the Kd in test [1] is under 0.4 µM. In addition, the IC50 in test [2] and in test [3] was under 1 µM each time.

As for `C[C@@H](Nc1nc(Cl)nc2c1CN(C(=O)C1(O)COC1)C2)c1cccc(C(F)F)c1F` [Example 300], the dissociation constant (Kd) in test [1] is under 0.4 µM. Besides, the IC50 in test [2] and in test [3] was under 1 µM in each case.

Take `COC1(C(=O)N2Cc3nc(Cl)nc(N[C@H](C)c4cccc(C(F)F)c4F)c3C2)CNC1` [Example 302]: the Kd in test [1] is under 0.4 µM. Further, the IC50 in test [2] and in test [3] was under 1 µM each time.

Regarding `C[C@@H](Nc1nc(Cl)nc2c1CN(C(=O)[C@@H]1CNCCO1)C2)c1cccc(C(F)F)c1F` [Example 303], in test [1], the Kd is under 0.4 µM. The IC50 in test [2] and in test [3] was under 1 µM throughout.

Consider `C[C@@H](Nc1nc(Cl)nc2c1CN(C(=O)[C@H]1COCCN1)C2)c1cccc(C(F)F)c1F` [Example 304], for which the Kd in test [1] was under 0.4 µM. Moreover, the IC50 in test [2] is over 1 µM; in test [3], under 1 µM.

With `C[C@@H](Nc1nc(Cl)nc2c1CN(C(=O)C1CCNCC1F)C2)c1cccc(C(F)F)c1F` (stereo partly drawn) [Example 305], the equilibrium dissociation constant (Kd) in test [1] is under 0.4 µM. In addition, the figures for the IC50 in test [2] and in test [3] were over 1 µM and under 1 µM, respectively.

With `C[C@@H](Nc1nc(Cl)nc2c1CN(C(=O)[C@H]1CCOC[C@H]1N)C2)c1cccc(C(F)F)c1F` [Example 306], the Kd in test [1] is under 0.4 µM. Besides, the IC50 in test [2] and in test [3] was under 1 µM throughout.

Turning to `C[C@@H](Nc1nc(Cl)nc2c1CN(C(=O)[C@H]1CNCCO1)C2)c1cccc(C(F)F)c1F` [Example 307], the dissociation constant Kd in test [1] is under 0.4 µM. Also, the IC50 in test [2] and in test [3] was under 1 µM throughout.

For `C[C@@H](Nc1nc(Cl)nc2c1CN(C(=O)[C@@H]1COCCN1)C2)c1cccc(C(F)F)c1F` [Example 309], in test [1], the Kd is under 0.4 µM. Moreover, the IC50 in test [2] and in test [3] was under 1 µM throughout.

As to `COC1(C(=O)N2Cc3nc(Cl)nc(N[C@H](C)c4cccc(C(F)F)c4F)c3C2)CCNCC1` [Example 310], the dissociation constant Kd in test [1] is under 0.4 µM. Moreover, the IC50 in test [2] and in test [3] was under 1 µM throughout.

With `C[C@@H](Nc1nc(Cl)nc2c1CN(C(=O)C1CCNCC1(F)F)C2)c1cccc(C(F)F)c1F` (stereo partly drawn) [Example 311], the Kd in test [1] was under 0.4 µM. The 50% inhibitory concentration (IC50) in test [2] and in test [3] was under 1 µM throughout.

For `C[C@@H](Nc1nc(Cl)nc2c1CN(C(=O)C13CCN(CC1)C3)C2)c1cccc(C(F)F)c1F` [Example 312], the Kd in test [1] is under 0.4 µM. Moreover, the IC50 in test [2] and in test [3] was under 1 µM throughout.

Regarding `C[C@@H](Nc1nc(Cl)nc2c1CN(C(=O)C13CCN(CC1)CC3)C2)c1cccc(C(F)F)c1F` [Example 313], the Kd in test [1] is under 0.4 µM. For the same compound, the IC50 in test [2] and in test [3] was under 1 µM throughout.

With `C[C@@H](Nc1nc(Cl)nc2c1CN(C(=O)C1(C)CCNCC1)C2)c1cccc(C(F)(F)F)c1` [Example 314], the dissociation constant Kd in test [1] was under 0.4 µM. In addition, the IC50 is over 1 µM in test [2] and under 1 µM in test [3].

Consider `COC1(C(=O)N2Cc3nc(Cl)nc(N[C@H](C)c4cccc(C(F)(F)F)c4)c3C2)CCNCC1` [Example 315], for which the Kd in test [1] is under 0.4 µM. For the same compound, the IC50 in test [2] and in test [3] was under 1 µM throughout.

For `COC1(C(=O)N2Cc3nc(Cl)nc(N[C@H](C)c4cccc(C(F)(F)F)c4)c3C2)CNC1` [Example 316], in test [1], the Kd was under 0.4 µM. The IC50 in test [2] and in test [3] was under 1 µM in each case.

As for `C[C@@H](Nc1nc(Cl)nc2c1CN(C(=O)C1CCN3CCOCC13)C2)c1cccc(C(F)F)c1F` (stereo partly drawn) [Example 318], in test [1], the Kd was under 0.4 µM. Also, the IC50 in test [2] is over 1 µM; in test [3] it was under 1 µM.

Take `C[C@@H](Nc1nc(Cl)nc2c1CN(C(=O)C1CCN(C)C1)C2)c1cccc(C(F)F)c1F` (stereo partly drawn) [Example 319]: the equilibrium dissociation constant (Kd) in test [1] was under 0.4 µM. Also, the IC50 in test [2] and in test [3] was under 1 µM in each case.

As to `C[C@@H](Nc1nc(Cl)nc2c1CN(C(=O)C1COCCN(C)C1)C2)c1cccc(C(F)F)c1F` (stereo partly drawn) [Example 320], the Kd in test [1] is under 0.4 µM. The IC50 in test [2] and in test [3] was under 1 µM throughout.

With `C[C@@H](Nc1nc(Cl)nc2c1CN(C(=O)[C@@H]1COCCN1C)C2)c1cccc(C(F)F)c1F` [Example 321], in test [1], the Kd was under 0.4 µM. Besides, the half-maximal inhibitory concentration (IC50) in test [2] and in test [3] was under 1 µM in each case.

`C[C@@H](Nc1nc(Cl)nc2c1CN(C(=O)CC1COCCN1C)C2)c1cccc(C(F)F)c1F` (stereo partly drawn) [Example 322]: the Kd in test [1] was under 0.4 µM. The IC50 in test [2] and in test [3] was under 1 µM throughout.

Turning to `COC1(C(=O)N2Cc3nc(Cl)nc(N[C@H](C)c4cccc(C(F)F)c4F)c3C2)CCN(C)CC1` [Example 323], the Kd in test [1] is under 0.4 µM. The IC50 in test [2] and in test [3] was under 1 µM each time.

These data come from US20230096028A1, “BICYCLIC HETEROCYCLYL COMPOUNDS AND USES THEREOF” (Revolution Medicines, Inc., priority 2019, published 2023).
